Measurements reported in patent US20110015223A1, “Compounds and methods for treatment of cancer-related anemia” (FibroGen, Inc., priority 2006, published 2011).
Marks after values point to notes of the source that are not given here.

Assays:
[1] = system: H-460-GFP human lung tumor-bearing nude mice (orthotopically xenografted); test: Plasma erythropoietin (EPO) by ELISA in nude mice with orthotopic H-460-GFP lung tumors (Example 3); type: in vivo; conditions: orthotopic H-460-GFP tumors; for plasma EPO levels compared to vehicle-treated control animals: in words, Compound A 20 or 60 mg/kg, Compounds C, D, E 20 mg/kg
Protocol: (§1) The effectiveness of administration of compounds of the present invention at preventing the development of anemia of cancer or at treating anemia of cancer in an animal model of cancer was examined. […] Genetically-engineered tumors of GFP-transfected H-460 cells were used in this study. The human H-460 lung cancer cell line used was obtained from the National Cancer Institute. […] Compounds were administered three-times per week
Plasma was isolated from these animals 6 hours following administration of the final dose of compound. Plasma erythropoietin (EPO) levels were determined by ELISA.

[2] = system: A549 human lung tumor-bearing nude mice; test: Plasma erythropoietin (EPO) by ELISA in nude mice with subcutaneous A549 lung tumors (Example 2); type: in vivo; conditions: for Mean [EPO]: four weeks, plasma 6 hours after final dose; for plasma EPO levels compared to vehicle-treated control animals: in words, Compound A 20 or 60 mg/kg, Compound C 20 mg/kg, Compound D 20 or 60 mg/kg as worded in text
Source text: (§2) Immuno-compromised athymic CD-1 nu/nu nude mice males (5-6 weeks old) were used in this study (Charles River Laboratories, Wilmington, Mass.). Animals were maintained in a HEPA-filtered environment during the experimental period. Cages, food, and bedding were autoclaved. Animal diets were obtained from Harlan Teklad (Madison, Wis.).
Compounds of the invention were formulated in an aqueous vehicle consisting of 0.1% (w/w) Polysorbate 80 (JT Baker) and 0.5% (w/w) high viscosity carboxymethyl cellulose sodium (Spectrum) to achieve a final 10 ml/kg dosing (oral gavage).
The A549 human lung cancer cell line was used. This cell line has been characterized extensively.
(§3) A stock tumor was developed by subcutaneoulsy injecting an A549 cell suspension into stock mice. The resulting tumor was maintained subcutaneously as tumor stock prior to use. Tumor implantation was performed when the stock tumors were in log phase of growth. […] Necrotic tissues were dissected away and viable tissues were cut into 1-2 mm^2 pieces. Tumor fragments were then transplanted subcutaneously to the right flank of the nude mice.
Administration of compounds of the present invention (administered three-times per week) was initiated when the inoculated tumors reached approximately 100 mm^3, and continued for four weeks thereafter.
Plasma was isolated from the animals 6 hours following administration of the final dose of compound. Plasma erythropoietin (EPO) levels were determined by ELISA.

[3] = system: OVCAR3 tumor-bearing female CB.17 SCID mice; test: Hematocrit in OVCAR3 ovarian tumor-bearing SCID mice (Example 5, FIG. 2); type: in vivo; conditions: in words (FIG. 2); 60 mg/kg; 29 days treatment
Source text: Tumors used in this study were OVCAR3 ovarian tumors. OVCAR3 tumor fragments (1 mm^3) were implanted subcutaneously into the flanks of female CB.17 SCID mice. The number of animals in each treatment group was 10. […] After 29 days treatment, animals were sacrificed and blood was collected for determination of hematocrit (HCT).

[4] = system: H-460-GFP human lung tumor-bearing nude mice (orthotopically xenografted); test: RBC, HGB and HCT in nude mice with orthotopic H-460-GFP lung tumors (Example 3); type: in vivo; conditions: 20 mg/kg three-times per week; whole blood 6 hours after final dose; orthotopic H-460-GFP tumors; mean +/- SD
Protocol: as §1
Whole blood was collected from these animals 6 hours following administration of the final dose of compound. Various measurable blood parameters indicative of erythropoiesis and treatment of anemia (red blood cell count, hemoglobin, and hematocrit) were analyzed.

[5] = system: human H-460 lung cancer tumor-bearing nude mice; test: Blood parameters in nude mice with subcutaneous H-460 lung tumors (anemia of cancer, Example 1); type: in vivo; conditions: M, W, F x 4, subcutaneous H-460 tumors, study endpoint
Source text: as §2
Compounds of the invention were pre-formulated in an aqueous vehicle consisting of 0.1% (w/w) Polysorbate 80 (JT Baker) and 0.5% (w/w) high viscosity carboxymethyl cellulose sodium (Spectrum) to achieve a final 10 ml/kg dosing (oral gavage).
as §3, with “The human H-460 lung cancer cell line used” for “A stock tumor”, “obtained from the National Cancer Institute. […]” for “developed by subcutaneoulsy injecting an A549 cell suspension into stock mice.”, “maintained in nude mice” for “maintained”
Treatment (administration of compounds of the present invention) was started when the inoculated tumors reached approximately 100 mm^3, and continued for four weeks.
These include red blood cell counts, hemoglobin, hematocrit, mean corpuscular volume, mean corpuscular hemoglobin, mean corpuscular hemoglobin concentration, red blood cell distribution, reticulocytes, reticulocyte counts, and immature reticulocyte fraction.

[6] = system: MDA-MB-435-GFP breast tumor-bearing female CD-1 nude mice; conditions: in words (FIG. 1); 20 mg/kg or 60 mg/kg; 33 days treatment; MDA-MB-435-GFP breast tumors
Protocol: The effectiveness of methods and compounds of the present invention at treating or preventing the development of anemia of cancer was examined as follows. In this study, experiments were performed essentially as described above in Example 1, with the following modifications. Tumors used in this study were MDA-MB-435-GFP breast tumors, and surgical orthotopic tumor fragment implantation was done directly into breast tissue of female CD-1 nude animals. The number of animals in each group was 15. […] After mean tumor volume in the vehicle control group exceeded 1 cm^3, animals were sacrificed (33 days treatment) and hematocrit was measured.

[7] = 20 mg/kg three-times per week, plasma 6 hours after final dose
[8] = 20 mg/kg oral gavage three-times per week

Compound: Cc1nc(C(=O)NCC(=O)O)c(O)c2ccc(Oc3ccccc3)cc12 [Cmpd D, [(4-Hydroxy-1-methyl-7-phenoxy-isoquinoline-3-carbonyl)-amino]-acetic acid]
- Average [EPO] [1, 7]: 2176 pg/mL
- plasma EPO levels compared to vehicle-treated control animals [1]: elevated
- Mean [EPO] ([2]; 6 mg/kg oral gavage three-times per week): 455 pg/mL
- Mean [EPO] [2, 8]: 489 pg/mL
- plasma EPO levels compared to vehicle-treated control animals [2]: increased
- hematocrit levels in OVCAR3 tumor-bearing animals [3]: increased
- HCT [4]: 45.6 +/− 1.8%
- HGB [4]: 15.4 ± 0.6 g/dL
- RBC [4]: 9.3 +/− 0.5

Compound: COc1ccc(Oc2ccc3c(O)c(C(=O)NCC(=O)O)ncc3c2)cc1 [Cmpd C, {[4-Hydroxy-7-(4-methoxy-phenoxy)-isoquinoline-3-carbonyl]-amino}-acetic acid]
- Abs Retic, reticulocyte count ([5]; 20 mg/kg PO): 457
- HCT, hematocrit ([5]; 20 mg/kg PO): 41.1%
- HGB, hemoglobin ([5]; 20 mg/kg PO): 14.0 g/dL
- IRF, immature RET fraction ([5]; 20 mg/kg PO): 0.56
- MCH, mean corpuscular hemoglobin ([5]; 20 mg/kg PO): 14.9 pg
- MCHC, MCH concentration ([5]; 20 mg/kg PO): 34.1 g/dL
- MCV, mean corpuscular volume ([5]; 20 mg/kg PO): 43.8 fL
- RBC, red blood cells ([5]; 20 mg/kg PO): 9.36e+06 µL⁻¹
- RDW, RBC distribution width ([5]; 20 mg/kg PO): 22.3%
- RET, reticulocytes ([5]; 20 mg/kg PO): 4.9%
- Average [EPO] [1, 7]: 5898 pg/mL
- plasma EPO levels compared to vehicle-treated control animals [1]: elevated
- Mean [EPO] [2, 8]: 3581* pg/ml
- plasma EPO levels compared to vehicle-treated control animals [2]: increased
- HCT [4]: 47.2 +/− 5.6%
- HGB [4]: 16.3 ± 1.6 g/dL
- RBC [4]: 9.8 +/− 1.1

Compound: rhEPO: recombinant human erythropoietin (EPO)
- Average [EPO] ([1]; rhEPO group, dose not given, plasma): 215 pg/mL

Compound: O=C(O)CNC(=O)c1nc(Cl)c2ccccc2c1O [Cmpd A]
- hematocrit levels compared to non-treated control animals with cancer [6]: increased
- Abs Retic, reticulocyte count ([5]; 20 mg/kg PO): 559
- HCT, hematocrit ([5]; 20 mg/kg PO): 40.4%
- HGB, hemoglobin ([5]; 20 mg/kg PO): 13.3 g/dL
- IRF, immature RET fraction ([5]; 20 mg/kg PO): 0.63
- MCH, mean corpuscular hemoglobin ([5]; 20 mg/kg PO): 15.1 pg
- MCHC, MCH concentration ([5]; 20 mg/kg PO): 33.1 g/dL
- RDW, RBC distribution width ([5]; 20 mg/kg PO): 21.3%
- RET, reticulocytes ([5]; 20 mg/kg PO): 6.4%
- Abs Retic, reticulocyte count ([5]; 60 mg/kg PO): 539
- HCT, hematocrit ([5]; 60 mg/kg PO): 39.5%
- HGB, hemoglobin ([5]; 60 mg/kg PO): 13.5 g/dL
- IRF, immature RET fraction ([5]; 60 mg/kg PO): 0.65
- MCH, mean corpuscular hemoglobin ([5]; 60 mg/kg PO): 15.6 pg
- MCHC, MCH concentration ([5]; 60 mg/kg PO): 34.2 g/dL
- RDW, RBC distribution width ([5]; 60 mg/kg PO): 23.6%
- RET, reticulocytes ([5]; 60 mg/kg PO): 6.5%
- hematocrit levels in OVCAR3 tumor-bearing animals [3]: increased

Compound: C[C@H](NC(=O)c1ncc2cc(Oc3ccccc3)ccc2c1O)C(=O)O [Cmpd B, (S)-2-[(4-Hydroxy-7-phenoxy-isoquinoline-3-carbonyl)-amino]-propionic acid]
- Abs Retic, reticulocyte count ([5]; 6 mg/kg PO): 653
- HCT, hematocrit ([5]; 6 mg/kg PO): 37.7%
- HGB, hemoglobin ([5]; 6 mg/kg PO): 12.7 g/dL
- IRF, immature RET fraction ([5]; 6 mg/kg PO): 0.64
- MCH, mean corpuscular hemoglobin ([5]; 6 mg/kg PO): 14.6 pg
- MCHC, MCH concentration ([5]; 6 mg/kg PO): 33.8 g/dL
- MCV, mean corpuscular volume ([5]; 6 mg/kg PO): 43.2 fL
- RBC, red blood cells ([5]; 6 mg/kg PO): 8.71e+06 µL⁻¹
- RDW, RBC distribution width ([5]; 6 mg/kg PO): 21.4%
- RET, reticulocytes ([5]; 6 mg/kg PO): 7.5%
- Abs Retic, reticulocyte count ([5]; 20 mg/kg PO): 552
- HCT, hematocrit ([5]; 20 mg/kg PO): 37.7%
- HGB, hemoglobin ([5]; 20 mg/kg PO): 12.7 g/dL
- IRF, immature RET fraction ([5]; 20 mg/kg PO): 0.56
- MCH, mean corpuscular hemoglobin ([5]; 20 mg/kg PO): 14.5 pg
- MCHC, MCH concentration ([5]; 20 mg/kg PO): 33.7 g/dL
- MCV, mean corpuscular volume ([5]; 20 mg/kg PO): 43.0 fL
- RBC, red blood cells ([5]; 20 mg/kg PO): 8.78e+06 µL⁻¹
- RDW, RBC distribution width ([5]; 20 mg/kg PO): 21.7%
- RET, reticulocytes ([5]; 20 mg/kg PO): 6.3%
